The results in this text go back to US11130756B2, “[1,2,4]Triazolo[4,3-A]pyridinyl substituted indole compounds” (BRISTOL-MYERS SQUIBB COMPANY, priority 2017, dated 2021).

Common to all, as to format: cell-based
The target of one experiment is T1, human TLR7 (Homo sapiens, UniProt Q9NYK1).
T1 construct: host or cells: HEK-Blue cells
T1 sequence (Q9NYK1 27-1049): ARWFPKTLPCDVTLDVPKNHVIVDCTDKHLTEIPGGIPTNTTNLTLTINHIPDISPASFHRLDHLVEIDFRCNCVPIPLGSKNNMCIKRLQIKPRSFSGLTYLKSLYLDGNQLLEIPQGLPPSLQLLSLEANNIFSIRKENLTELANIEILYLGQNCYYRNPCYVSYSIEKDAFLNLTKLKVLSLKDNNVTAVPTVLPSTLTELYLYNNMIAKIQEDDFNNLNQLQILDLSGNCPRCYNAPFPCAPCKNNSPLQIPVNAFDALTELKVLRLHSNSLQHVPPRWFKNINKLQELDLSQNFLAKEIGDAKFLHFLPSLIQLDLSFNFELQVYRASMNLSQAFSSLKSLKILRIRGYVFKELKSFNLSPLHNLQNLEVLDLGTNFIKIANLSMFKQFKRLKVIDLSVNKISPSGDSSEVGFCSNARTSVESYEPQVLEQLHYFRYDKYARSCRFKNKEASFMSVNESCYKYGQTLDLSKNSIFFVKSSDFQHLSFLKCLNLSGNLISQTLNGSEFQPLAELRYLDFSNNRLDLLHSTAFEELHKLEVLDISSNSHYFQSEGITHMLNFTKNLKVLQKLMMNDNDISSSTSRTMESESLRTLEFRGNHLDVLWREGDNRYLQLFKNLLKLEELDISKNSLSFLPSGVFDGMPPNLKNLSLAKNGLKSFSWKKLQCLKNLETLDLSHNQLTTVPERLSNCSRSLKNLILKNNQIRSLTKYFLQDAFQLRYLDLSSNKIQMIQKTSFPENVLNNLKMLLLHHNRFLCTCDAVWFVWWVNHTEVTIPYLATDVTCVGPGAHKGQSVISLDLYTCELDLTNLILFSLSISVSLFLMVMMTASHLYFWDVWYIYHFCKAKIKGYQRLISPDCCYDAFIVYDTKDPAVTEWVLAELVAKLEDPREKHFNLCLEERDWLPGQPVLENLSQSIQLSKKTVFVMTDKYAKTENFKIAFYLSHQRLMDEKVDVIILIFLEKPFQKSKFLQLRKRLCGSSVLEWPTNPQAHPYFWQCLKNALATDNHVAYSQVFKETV
The experiment in a line: TLR7 inhibition reporter assay (HEK-Blue, SEAP). As to conditions: HEK-Blue cells overexpressing human TLR7, gardiquimod 7.5 μM, 22 hour incubation. The gist of the method:
(§1)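 Dose–response from 0.05 nM to 50 μM was run in HEK-Blue human TLR7, TLR8 and TLR9 reporter cells. After 30 min at room temperature with compound, ligand was added (TLR7 gardiquimod 7.5 μM; TLR8 R848 15.9 μM; TLR9 ODN2006 5 nM) and SEAP measured next day, at 22 h.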

The target in a further experiment is T2, human TLR8 (Homo sapiens, UniProt Q9NR97).
T2 construct: host or cells: HEK-Blue cells
T2 sequence (Q9NR97 27-1041): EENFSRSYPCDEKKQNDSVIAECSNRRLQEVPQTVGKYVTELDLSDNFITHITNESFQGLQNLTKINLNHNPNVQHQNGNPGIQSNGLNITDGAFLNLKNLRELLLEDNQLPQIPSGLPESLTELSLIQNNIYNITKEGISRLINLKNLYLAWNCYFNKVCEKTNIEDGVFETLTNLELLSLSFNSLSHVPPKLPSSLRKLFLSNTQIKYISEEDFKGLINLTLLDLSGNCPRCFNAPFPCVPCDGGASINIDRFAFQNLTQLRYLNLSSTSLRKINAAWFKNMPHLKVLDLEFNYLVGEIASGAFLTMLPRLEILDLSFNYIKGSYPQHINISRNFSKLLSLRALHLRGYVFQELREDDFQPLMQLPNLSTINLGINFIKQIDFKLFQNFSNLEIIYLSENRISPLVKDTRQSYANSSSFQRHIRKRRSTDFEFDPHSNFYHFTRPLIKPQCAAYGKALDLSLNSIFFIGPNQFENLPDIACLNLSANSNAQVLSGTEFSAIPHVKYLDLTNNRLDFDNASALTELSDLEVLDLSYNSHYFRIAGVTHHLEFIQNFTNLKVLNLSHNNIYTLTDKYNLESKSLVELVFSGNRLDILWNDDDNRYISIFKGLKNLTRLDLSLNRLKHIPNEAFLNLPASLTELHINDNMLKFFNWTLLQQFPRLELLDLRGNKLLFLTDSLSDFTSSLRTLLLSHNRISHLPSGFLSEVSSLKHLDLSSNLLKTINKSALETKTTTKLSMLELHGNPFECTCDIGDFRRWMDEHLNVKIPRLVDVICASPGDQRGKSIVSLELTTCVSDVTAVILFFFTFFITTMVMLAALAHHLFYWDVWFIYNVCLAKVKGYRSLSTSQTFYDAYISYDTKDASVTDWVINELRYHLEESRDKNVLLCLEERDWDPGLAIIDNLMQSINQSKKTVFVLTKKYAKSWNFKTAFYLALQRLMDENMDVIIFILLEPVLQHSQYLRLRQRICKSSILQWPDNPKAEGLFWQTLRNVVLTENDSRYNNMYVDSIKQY
The experiment in a line: TLR8 inhibition reporter assay (HEK-Blue, SEAP). As to conditions: HEK-Blue cells overexpressing human TLR8, R848 15.9 μM, 22 hour incubation. The gist of the method: as §1

In another experiment the target is T3, human TLR9 (Homo sapiens, UniProt Q9NR96).
T3 construct: host or cells: HEK-Blue cells
T3 sequence (Q9NR96 26-1032): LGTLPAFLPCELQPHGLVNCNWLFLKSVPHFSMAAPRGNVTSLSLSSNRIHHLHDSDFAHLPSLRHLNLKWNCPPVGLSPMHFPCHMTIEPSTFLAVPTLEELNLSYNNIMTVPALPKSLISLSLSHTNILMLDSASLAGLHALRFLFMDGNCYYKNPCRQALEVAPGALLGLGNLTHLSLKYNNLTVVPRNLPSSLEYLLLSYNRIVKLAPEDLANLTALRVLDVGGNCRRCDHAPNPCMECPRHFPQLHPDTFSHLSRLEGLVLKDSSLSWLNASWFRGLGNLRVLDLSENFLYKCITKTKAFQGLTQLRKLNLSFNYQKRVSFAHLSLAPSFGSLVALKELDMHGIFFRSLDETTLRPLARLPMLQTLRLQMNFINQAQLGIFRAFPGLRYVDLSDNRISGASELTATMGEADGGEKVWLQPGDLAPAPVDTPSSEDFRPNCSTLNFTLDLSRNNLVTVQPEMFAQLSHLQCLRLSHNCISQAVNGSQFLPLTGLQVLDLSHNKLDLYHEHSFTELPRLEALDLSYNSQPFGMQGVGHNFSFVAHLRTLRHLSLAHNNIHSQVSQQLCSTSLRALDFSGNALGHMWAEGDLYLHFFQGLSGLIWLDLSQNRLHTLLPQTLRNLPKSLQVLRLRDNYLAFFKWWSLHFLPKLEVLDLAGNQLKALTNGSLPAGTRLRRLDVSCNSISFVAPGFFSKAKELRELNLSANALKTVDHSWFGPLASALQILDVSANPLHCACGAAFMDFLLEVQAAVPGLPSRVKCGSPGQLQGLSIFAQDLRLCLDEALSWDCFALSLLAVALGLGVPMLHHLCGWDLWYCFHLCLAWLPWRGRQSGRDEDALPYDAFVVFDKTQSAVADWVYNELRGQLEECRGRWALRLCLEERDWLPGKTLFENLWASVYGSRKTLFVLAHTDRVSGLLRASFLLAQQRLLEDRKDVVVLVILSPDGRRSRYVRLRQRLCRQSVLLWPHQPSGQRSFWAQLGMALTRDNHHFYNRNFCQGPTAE
The experiment in a line: TLR9 inhibition reporter assay (HEK-Blue, SEAP). As to conditions: HEK-Blue cells overexpressing human TLR9, ODN2006 5 nM, 22 hour incubation. The gist of the method:
as §1

Take `Cc1c(-c2[nH]c3ccc(C4CCN(CCCC(F)(F)F)CC4)cc3c2C(C)C)cn2cnnc2c1C` [Example 44, 6-(3-isopropyl-5-(1-(4,4,4-trifluorobutyl)piperidin-4-yl)-1H-indol-2-yl)-7,8-dimethyl-[1,2,4]triazolo[4,3-a]pyridine]: the half-inhibitory concentration (IC50) against human TLR7 turned out to be 1.7 nM; at human TLR8, 6.5 nM; at human TLR9 it was 1750 nM.
In the case of `Cc1c(-c2[nH]c3ccc(C4CCN(Cc5ncn(C)n5)CC4)cc3c2C(C)C)cn2cnnc2c1C` [Example 45, 6-(3-isopropyl-5-(1-((1-methyl-1H-1,2,4-triazol-3-yl)methyl)piperidin-4-yl)-1H-indol-2-yl)-7,8-dimethyl-[1,2,4]triazolo[4,3-a]pyridine], the IC50 was found to be 3.2 nM against human TLR7, 8.1 nM on human TLR8 and 2310 nM on human TLR9.
`Cc1c(-c2[nH]c3ccc(C4CCN(CCS(C)(=O)=O)CC4)cc3c2C(C)C)cn2cnnc2c1Cl` [Example 46, 8-chloro-6-(3-isopropyl-5-(1-(2-(methylsulfonyl)ethyl)piperidin-4-yl)-1H-indol-2-yl)-7-methyl-[1,2,4]triazolo[4,3-a]pyridine]: the IC50 on human TLR7 came to 2.1 nM; at human TLR8, 8.6 nM; at human TLR9, 8910 nM.
`Cc1c(-c2[nH]c3ccc(C4CCN(Cc5ncn(C)n5)CC4)cc3c2C(C)C)cn2cnnc2c1Cl` [Example 47, 8-chloro-6-(3-isopropyl-5-(1-((1-methyl-1H-1,2,4-triazol-3-yl)methyl)piperidin-4-yl)-1H-indol-2-yl)-7-methyl-[1,2,4]triazolo[4,3-a] pyridine]: the IC50 against human TLR7 was found to be 3.8 nM; at human TLR8, 21.9 nM; against human TLR9, 2070 nM.
`Cc1c(-c2[nH]c3ccc(C4CCN(CCCC(F)(F)F)CC4)cc3c2C(C)C)cn2cnnc2c1Cl` [Example 48, 8-chloro-6-(3-isopropyl-5-(1-(4,4,4-trifluorobutyl)piperidin-4-yl)-1H-indol-2-yl)-7-methyl-[1,2,4]triazolo[4,3-a]pyridine]: the IC50 against human TLR7 worked out at 1.9 nM; against human TLR8 it was 13.5 nM; against human TLR9, 2570 nM.
Turning to `Cc1c(-c2[nH]c3ccc(C4CCN(CC(=O)N(C)C)CC4)cc3c2C(C)C)cn2cnnc2c1Cl` [Example 49, 2-(4-(2-(8-chloro-7-methyl-[1,2,4]triazolo[4,3-a]pyridin-6-yl)-3-isopropyl-1H-indol-5-yl)piperidin-1-yl)-N,N-dimethylacetamide], the IC50 on human TLR7 turned out to be 1.5 nM; on human TLR8, 31.1 nM; at human TLR9, 957 nM.
For the compound `Cc1c(-c2[nH]c3ccc(C4CCN(CC#N)CC4)cc3c2C(C)C)cn2cnnc2c1Cl` [Example 50, 2-(4-(2-(8-chloro-7-methyl-[1,2,4]triazolo[4,3-a]pyridin-6-yl)-3-isopropyl-1H-indol-5-yl)piperidin-1-yl)acetonitrile], the results for the IC50 on human TLR7, on human TLR8 and against human TLR9 were 1.5 nM, 57 nM and 1090 nM, respectively.
Take `Cc1c(-c2[nH]c3ccc(C4CCN(CC#N)CC4)cc3c2C(C)C)cn2cnnc2c1C` [Example 51, 2-(4-(2-(7,8-dimethyl-[1,2,4]triazolo[4,3-a]pyridin-6-yl)-3-isopropyl-1H-indol-5-yl)piperidin-1-yl)acetonitrile]: the figures for the IC50 on human TLR7, at human TLR8 and at human TLR9 were 2.8 nM, 31.8 nM and 1000 nM, respectively.
The matching figures for `Cc1c(-c2[nH]c3ccc(C4CCN(CCN5CCCS5(=O)=O)CC4)cc3c2C(C)C)cn2cnnc2c1C` [Example 52, 2-(2-(4-(2-(7,8-dimethyl-[1,2,4]triazolo[4,3-a]pyridin-6-yl)-3-isopropyl-1H-indol-5-yl)piperidin-1-yl)ethyl)isothiazolidine 1,1-dioxide]: 1.5 nM, 5.8 nM and 1280 nM.
Consider `Cc1c(-c2[nH]c3ccc(C4CCN(CCN5CCCS5(=O)=O)CC4)cc3c2C(C)C)cn2cnnc2c1Cl` [Example 53, 2-(2-(4-(2-(8-chloro-7-methyl-[1,2,4]triazolo[4,3-a]pyridin-6-yl)-3-isopropyl-1H-indol-5-yl)piperidin-1-yl)ethyl) isothiazolidine 1,1-dioxide], for which the IC50 at human TLR7 was 0.9 nM; against human TLR8 it was 10.1 nM; on human TLR9 it was 565 nM.
The matching figures for `COc1cc(-c2[nH]c3ccc(C4CCN(CC(=O)N(C)C)CC4)cc3c2C(C)C)cn2cnnc12` [Example 54, 2-(4-(3-isopropyl-2-(8-methoxy-[1,2,4]triazolo[4,3-a]pyridin-6-yl)-1H-indol-5-yl)piperidin-1-yl)-N,N-dimethylacetamide]: 1.9 nM, 19.5 nM and 99 nM.
Consider `COc1cc(-c2[nH]c3ccc(C4CCN(CCCC(F)(F)F)CC4)cc3c2C(C)C)cn2cnnc12` [Example 55, 6-(3-isopropyl-5-(1-(4,4,4-trifluorobutyl)piperidin-4-yl)-1H-indol-2-yl)-8-methoxy-[1,2,4]triazolo[4,3-a] pyridine], for which the values for the IC50 against human TLR7, against human TLR8 and against human TLR9 were 0.9 nM, 10.6 nM and 1100 nM, respectively.
